# Columns and labels:
# [1] = test system: burst suppression; test: physostigmine effect on stable burst suppression, rat EEG; format: in vivo, Sprague-Dawley rat; details: rat deeply anesthetized with 2% isoflurane
# From the text: The following description is with respect to an analysis of a rat under general anesthesia-induced burst suppression The BSP is compared to the BSR in order to illustrate its benefits. For the experiments described herein, signals were first band pass filtered between 5 and 30 Hz. The filtered signals were thresholded and suppression segments less than 500 milliseconds in duration were switched to 1. The binary series was then provided as an input to the BSP algorithm.
# The BSP algorithm was evaluated on a rat EEG signal recorded to test whether physostigmine, a cholinergic agonist hypothesized to increase arousal, causes the burst suppression pattern observed during deep anesthesia to switch into continuous activity (associated with increased arousal). In this experiment, it is advantageous to know whether physostigmine, and not saline (control), induces a shift from burst suppression (deep anesthesia) to a delta wave pattern (lighter anesthesia). In case it does, it is desirable characterize the temporal dynamics of that change.
# A rat pre-implanted with extradural EEG electrodes was deeply anesthetized with 2% isoflurane. After stabilization of the inhaled concentration, the EEG signal, was recorded for 10 minutes prior to a saline intravenous injection (control). Six minutes later, physostigmine was injected and the recording was maintained for an additional thirty minutes. […]
# [2] = two-compartment pharmacokinetics model estimation, rat models; design: species or system rats; details: for σ scaling factor of infusion rate: rat two-compartment model; for K12 rate constant: rat two-compartment model fit to Vijn and Sneyd BSR time courses after 10-second bolus (8 mg kg^−1 propofol, 3.5 mg kg^−1 etomidate)
# From the text: In one clinical application, the control target may be to achieve and maintain a target BSR corresponding to medical coma, thereby maintaining an equilibrium effect-site concentration. To design a suitable but not overly-complex model, it may be assumed that, due to the time lag between central compartment drug infusion and effect-site concentration increase, there must be at least two compartments to accurately model the evolution of the drug concentrations. Such a simplified two-compartment model is composed of the central plasma compartment and the auxiliary effect-site compartment connected by a first-order transfer process, ignoring any other peripheral drug distribution compartments.
# The pharmacokinetic model in FIG. 9A can be described by the second-order linear differential equation system: […]
# for an infusion rate of ut, in units of μg/s, scaled by a factor of σ. The kinetic rate constants k12 and k21 govern the drug flow between compartments, while the rate constant k10 determines the rate of the drug's clearance from the central compartment. The slow peripheral compartment and fast peripheral compartment, common in many population models, are not included.
# These estimated parameters were used to design the closed-loop controller (see below) in order to yield a critically damped system response, that is, the fastest rise times without overshoot.
# For the human models, existing population pharmacokinetic models were calibrated for a 180-cm, 70-kg person. […] Since a patient may not enter a state of burst suppression the instant the effect-site concentration is nonzero, the concentration trace was shifted negatively and transformed to pt such that the patient peaked at a BSP of 0.7, and came out of burst suppression 7 minutes after the initiation of the dose. […] Anesthesiology 65: 19-27, which is incorporated herein by reference, was used to numerically evaluate the effect-site concentration during and after a 10-second bolus of […].
# Matlab's Optimization Toolbox was used to optimize these four parameters of the pharmacokinetic model to minimize this mean squared error, and yield an estimate of the best-fit rate constants and scaling factor.
# [3] = test system: dopaminergic arousal pathway; details: cited from earlier work
# [4] = test system: burst suppression; details: patient after propofol bolus induction
# From the text: Typically, in the operating room, a bolus dose of an anesthetic is rapidly administered to induce general anesthesia. It is often the case that the patient enters burst suppression within seconds and might remain in that state for several minutes. Since the efficiency of the drug depends on several empirical factors, it is relevant to monitor the level of suppression that is reached and its trajectory, which may help detect any anomaly, or tune the subsequent doses or levels of anesthesia.
# The EEG was recorded from a scalp electrode at the FP1 site referenced to the FZ electrode of the standard electrode configuration. […] The choice of Δ=250 corresponds to a resolution of one second as in the previous case.
# [5] = test system: alpha (8-13 Hz) power
# From the text: 14 patients were implanted with iEEG electrode arrays as part of standard clinical treatment for intractable epilepsy. The arrays included linear penetrating depth arrays having 6-8 electrodes, subdural grid arrays having 16-64 electrodes, and/or subdural strip arrays having 4-16 electrodes (Adtech Medical, Racine, Wis.) (FIG. 21). Surface EEG electrodes were additionally applied to six patients in a subset of the standard 10-20 EEG configuration. Electrode placement was selected by the patients' clinicians without regard to the current study. […] Recordings were obtained during electrode explant surgery that occurred after 1-3 weeks of inpatient monitoring to determine epileptogenic foci. Signal acquisition began prior to induction of general anesthesia and continued until the electrodes were disconnected for explant. EEG and iEEG signals were recorded with a sampling rate of a 2000, 500, or 250 Hz depending on settings of the hospital's clinical acquisition system. Signals were digitized with hardware amplifiers (XLTEK, Natus Medical, Inc., San Carlos, Calif.) that bandpassed between 0.3 Hz and the sampling rate, and were stored on a computer (Dell) for offline processing.
# Drug protocols were selected by the patients' clinicians without regard to the current study.
# Patients were delivered auditory stimuli through headphones (prerecorded words and the patient's name) approximately every 4 seconds during the task, and were instructed to respond with a button click. Responses were recorded using stimulus presentation software (Presentation, Neurobehavioral Systems, Inc., Albany, Calif., or EPrime, Psychology Software Tools, Inc., Sharpsburg, Pa.). […] This patient was excluded from group analyses of peri-LOC dynamics.
# In each subject, two epochs were distinguished over the recording period. […] We used visual inspection to identify the postinduction epoch. […] Burst suppression intervals were excluded to avoid the confound of low-power suppression intervals in group analyses, which differed in total time across patients. […]
# [6] = rat two-compartment model fit to Vijn and Sneyd BSR time courses after 10-second bolus
smiles,measurement,setting,value
CNC(=O)Oc1ccc2c(c1)[C@]1(C)CCN(C)[C@@H]1N2C [physostigmine],time out of suppression after injection,[1],around 10 minutes
same,BSP after injection,[1]; baseline BSP around 0.5,0
CCOC(=O)c1cncn1[C@H](C)c1ccccc1 [Etomidate],σ scaling factor of infusion rate,[2],0.8394
same,K21 rate constant,[2]; [6],0.6703 min⁻¹
same,K12 rate constant,[2],0.01547 min⁻¹
COC(=O)C(c1ccccc1)C1CCCCN1 (centres unmarked) [methylphenidate],emergence from general anesthesia,[3]; isoflurane general anesthesia,actively induces emergence from isoflurane general anesthesia
same,minute ventilation,[3]; plethysmography and blood gas experiments,increases minute ventilation
"CC(C)c1cccc(C(C)C)c1O [Propofol, 2,6-di-isopropylphenol]",σ scaling factor of infusion rate,[2],0.5885
same,K10 rate constant (clearance from central compartment),[2]; [6],4.552 min⁻¹
same,K21 rate constant,[2]; [6],0.9599 min⁻¹
same,K12 rate constant,[2],0.01557 min⁻¹
same,BSP reached after slow second increase,[4],around 0.7
same,"BSP, binary filter estimate, at minute 2",[4],around 0.5
same,"BSP, binary filter estimate, decrease after minute 2",[4],around 0.2
same,"BSP, smoother estimate, at minute 2",[4],~0.6
same,"BSP, smoother estimate, decrease after minute 2",[4],~0.1
same,duration of burst suppression,[4],about 8 minutes
same,time after LOC to abrupt suppression of alpha power,"[5]; Patient 9, occipital and temporal channels",≤ 10 s
same,increase of median alpha power in the postinduction period,"[5]; hippocampus, cingulate cortex, medial white matter electrodes",approximately 5 dB
same,change of alpha power in the postinduction period,"[5]; occipital, parietal, inferotemporal cortex and primary auditory cortex",consistently decreased

# Reference: patent publication US20190374158A1, “SYSTEM AND METHOD FOR MONITORING AND CONTROLLING A STATE OF A PATIENT DURING AND AFTER ADMINISTRATION OF […]” (The General Hospital Corporation, priority 2012, published 2019)
